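Cultured in 96-well plates, cells were exposed to test compound for 48 hours across five concentrations. GI50: concentration for 50% inhibition of growth.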 Activity calls are given as the source filed them. No stated cut-off is given here; in the data, active = GI50 up to about 1.1 µM and inactive = higher.
Assays:
Experiment in all cases: DTP human tumour cell line panel, 48 h
[1] = tested on: TK-10
[2] = tested on: M14
[3] = tested on: HOP-62
[4] = tested on: ACHN
[5] = tested on: 786-0
[6] = tested on: SK-OV-3
[7] = tested on: KM12
[8] = tested on: OVCAR-5
[9] = tested on: IGROV-1
[10] = tested on: SF-295
[11] = tested on: SK-MEL-2
[12] = tested on: COLO 205
[13] = tested on: HCT-15
[14] = tested on: OVCAR-8
[15] = tested on: SNB-75
[16] = tested on: SR
[17] = tested on: LOX IMVI

Row | Compound | GI50 [1] | GI50 [2] | GI50 [3] | GI50 [4] | GI50 [5] | GI50 [6] | GI50 [7] | GI50 [8] | GI50 [9] | GI50 [10] | GI50 [11] | GI50 [12] | GI50 [13] [µM] | GI50 [14] | GI50 [15] | GI50 [16] | GI50 [17]
1 | CC1=C(/C=C/C(C)=C/C=C/C(C)=C/C=C/C=C(C)/C=C/C=C(C)/C=C/C=C(C)/C=C/C=C(\C)C(=O)O)C(C)(C)CCC1 | > 100 µM (inactive) | > 100 µM (inactive) | > 100 µM (inactive) | > 100 µM (inactive) | > 100 µM (inactive) | > 100 µM (inactive) | > 100 µM (inactive) | > 100 µM (inactive) | > 100 µM (inactive) | > 100 µM (inactive) | > 100 µM (inactive) | > 100 µM (inactive) | > 100 | > 100 µM (inactive) | 69 µM (inactive) | – | –
2 | CC(=O)c1ccc(NC(=O)C(=O)CC(=O)c2sc(-n3nc(-c4ccccc4)cc3-c3ccccc3)nc2C)cc1 | > 100 µM (inactive) | > 100 µM (inactive) | > 100 µM (inactive) | > 100 µM (inactive) | > 100 µM (inactive) | > 100 µM (inactive) | > 100 µM (inactive) | > 100 µM (inactive) | > 100 µM (inactive) | > 100 µM (inactive) | > 100 µM (inactive) | > 100 µM (inactive) | > 100 | > 100 µM (inactive) | – | > 100 µM (inactive) | > 100 µM (inactive)
3 | O=C(NO)c1ccc(O)c(O)c1 | 98.6 µM (inactive) | > 100 µM (inactive) | > 100 µM (inactive) | > 100 µM (inactive) | > 100 µM (inactive) | > 100 µM (inactive) | > 100 µM (inactive) | 94.6 µM (inactive) | > 100 µM (inactive) | 29.5 µM (inactive) | – | > 100 µM (inactive) | 98.4 | 79.1 µM (inactive) | > 100 µM (inactive) | 36.4 µM (inactive) | > 10 µM (inactive)
4 | COC1CCC2C(NS(=O)(=O)c3ccc(C)cc3)CCCC2O1.Cc1ccc(S(=O)(=O)NC(C)(C)C=O)cc1 (stereo unspecified) | 18.1 µM (inactive) | 16.7 µM (inactive) | 20.8 µM (inactive) | 24.8 µM (inactive) | 19.9 µM (inactive) | > 34.5 µM (inactive) | 12.4 µM (inactive) | > 34.5 µM (inactive) | 16.4 µM (inactive) | 8.51 µM (inactive) | > 34.5 µM (inactive) | – | 15.6 | 16.1 µM (inactive) | 25 µM (inactive) | – | 5.62 µM (inactive)
5 | CC(=O)OCC1OC(n2c(-c3ccc(C)cc3)cc(-c3ccccc3)c(C#N)c2=O)C(OC(C)=O)C(OC(C)=O)C1OC(C)=O (stereo unspecified) | > 100 µM (inactive) | > 100 µM (inactive) | > 100 µM (inactive) | > 100 µM (inactive) | > 100 µM (inactive) | > 100 µM (inactive) | > 100 µM (inactive) | > 100 µM (inactive) | > 100 µM (inactive) | – | > 100 µM (inactive) | > 100 µM (inactive) | > 100 | > 100 µM (inactive) | 71.6 µM (inactive) | – | > 100 µM (inactive)
6 | CN1Nc2ccccc2CC1=O | > 100 µM (inactive) | > 100 µM (inactive) | > 100 µM (inactive) | > 100 µM (inactive) | > 100 µM (inactive) | > 100 µM (inactive) | > 100 µM (inactive) | > 100 µM (inactive) | > 100 µM (inactive) | > 100 µM (inactive) | > 100 µM (inactive) | > 100 µM (inactive) | > 100 | > 100 µM (inactive) | > 100 µM (inactive) | – | > 100 µM (inactive)
7 | O=C1c2ccccc2C(=O)C2C1C1C(=O)c3ccccc3C(=O)C21 (stereo unspecified) | > 100 µM (inactive) | > 100 µM (inactive) | > 100 µM (inactive) | > 100 µM (inactive) | > 100 µM (inactive) | > 100 µM (inactive) | 49.7 µM (inactive) | 42.3 µM (inactive) | 79.1 µM (inactive) | > 100 µM (inactive) | > 100 µM (inactive) | > 100 µM (inactive) | 8.69 | > 100 µM (inactive) | 57.4 µM (inactive) | – | 33.3 µM (inactive)
8 | C[C@]12CC[C@H](OC3CCCCO3)CC1=CC[C@@H]1C2CC[C@]2(C)/C(=N/O)CCC12 (stereo partly specified) | 30.5 µM (inactive) | 21.4 µM (inactive) | > 100 µM (inactive) | 18.2 µM (inactive) | 20.4 µM (inactive) | 34.9 µM (inactive) | 15.6 µM (inactive) | 19.4 µM (inactive) | > 100 µM (inactive) | 15.1 µM (inactive) | 36.8 µM (inactive) | > 10 µM (inactive) | 14.5 | 19.2 µM (inactive) | 20.5 µM (inactive) | – | 13.8 µM (inactive)
9 | CN1C(=O)CC2(C)c3cc(C=O)ccc3N(C)C12 (stereo unspecified) | > 100 µM (inactive) | > 100 µM (inactive) | > 100 µM (inactive) | > 100 µM (inactive) | > 100 µM (inactive) | > 100 µM (inactive) | > 100 µM (inactive) | > 100 µM (inactive) | > 100 µM (inactive) | > 100 µM (inactive) | > 100 µM (inactive) | > 100 µM (inactive) | > 100 | > 100 µM (inactive) | 69.5 µM (inactive) | – | > 100 µM (inactive)

Reference: ChEMBL document CHEMBL1201862, “PubChem BioAssay data set” (2004)
